Experimental data as given in US11780893B2, “Kv1.3 blockers” (Zealand Pharma A/S, priority 2019, dated 2023).
Like-named read-outs stand apart in the source and are kept apart here. Bridge positions count the residues as written; N and C are the ends. Square brackets hold non-standard residues; d marks the D form. Peptide text beside a SMILES is read from it. Aad = N[C@@H](CCCC(=O)O)C(=O)O; hLys = NCCCCC[C@H](N)C(=O)O; Nle = CCCC[C@H](N)C(=O)O; Abu = CC[C@H](N)C(=O)O

Key:
[1] = biological target: T1, human Kv1.3 voltage-gated K+ channel (Homo sapiens, UniProt P22001); experiment: cell-based; details: inhibition of thallium flux, CHO-DUKX cells with human Kv1.3; read-out: IC50
T1 construct: host or cells: CHO-DUKX

[2] = biological target: Rat whole blood (Rattus norvegicus, UniProt P15384)
[3] = inhibition of IL-17A release, thapsigargin, 24 Hr, at least 2 replicates

Rat whole blood, sequence (P15384 whole entry): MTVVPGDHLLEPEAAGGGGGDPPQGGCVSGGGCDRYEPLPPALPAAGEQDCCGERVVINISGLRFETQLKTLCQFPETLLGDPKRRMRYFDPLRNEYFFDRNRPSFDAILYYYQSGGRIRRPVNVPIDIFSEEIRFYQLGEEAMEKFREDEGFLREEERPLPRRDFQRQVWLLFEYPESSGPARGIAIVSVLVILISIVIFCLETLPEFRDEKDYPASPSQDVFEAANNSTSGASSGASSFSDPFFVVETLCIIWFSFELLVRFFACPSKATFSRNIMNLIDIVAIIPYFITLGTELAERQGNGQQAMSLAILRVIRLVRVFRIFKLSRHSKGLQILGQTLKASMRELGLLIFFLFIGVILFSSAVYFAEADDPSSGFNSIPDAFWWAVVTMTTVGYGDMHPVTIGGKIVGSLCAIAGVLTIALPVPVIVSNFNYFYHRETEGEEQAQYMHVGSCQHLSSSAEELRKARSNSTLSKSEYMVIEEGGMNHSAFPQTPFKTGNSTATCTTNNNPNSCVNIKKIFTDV
T1 sequence (P22001 whole entry): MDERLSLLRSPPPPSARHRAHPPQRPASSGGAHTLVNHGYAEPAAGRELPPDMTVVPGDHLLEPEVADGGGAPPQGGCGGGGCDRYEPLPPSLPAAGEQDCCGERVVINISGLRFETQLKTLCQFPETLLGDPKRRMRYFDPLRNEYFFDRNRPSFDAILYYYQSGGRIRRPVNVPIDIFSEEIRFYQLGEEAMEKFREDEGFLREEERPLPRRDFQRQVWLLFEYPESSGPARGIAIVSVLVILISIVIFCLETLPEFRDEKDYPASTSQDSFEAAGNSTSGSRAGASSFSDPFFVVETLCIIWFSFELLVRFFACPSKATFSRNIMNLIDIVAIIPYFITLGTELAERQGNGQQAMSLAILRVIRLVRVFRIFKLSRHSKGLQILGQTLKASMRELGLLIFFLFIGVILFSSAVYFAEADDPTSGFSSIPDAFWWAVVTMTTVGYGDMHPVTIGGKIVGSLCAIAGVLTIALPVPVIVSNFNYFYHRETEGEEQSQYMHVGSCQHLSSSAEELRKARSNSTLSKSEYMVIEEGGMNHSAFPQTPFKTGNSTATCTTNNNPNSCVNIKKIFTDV

CCCC[C@H](NC(=O)[C@H](CC(=O)O)NC(=O)[C@H](CCCC)NC(=O)[C@@H](N)CO)C(=O)N[C@@H](CCCNC(=N)N)C(=O)N[C@H]1CSSC[C@@H]2NC(=O)[C@H](CCCCN)NC(=O)CNC(=O)[C@H](Cc3ccccc3)NC(=O)[C@H]([C@@H](C)CC)NC(=O)[C@H](CO)NC(=O)CNC(=O)[C@H]([C@@H](C)CC)NC(=O)[C@H](C)NC(=O)[C@H](CCCCN)NC(=O)[C@H](CC(C)C)NC(=O)[C@@H]3CSSC[C@@H](C(=O)N[C@@H](Cc4ccc(O)cc4)C(=O)N4CCC[C@H]4C(=O)N[C@@H](CCCNC(=N)N)C(N)=O)NC(=O)[C@H](CCCCN)NC(=O)[C@H](CSSC[C@H](NC(=O)[C@H](CCC(=O)O)NC(=O)[C@H](C(C)C)NC(=O)[C@H](CC)NC(=O)[C@H](C)NC(=O)[C@H](CO)NC1=O)C(=O)N[C@@H](CCCCN)C(=O)N[C@@H](CCC(N)=O)C(=O)N[C@@H](CCCCN)C(=O)N3)NC(=O)[C@H](CCCCN)NC(=O)[C@H](CCCCN)NC(=O)[C@H](CC(N)=O)NC(=O)[C@H](CCSC)NC2=O [Compound 68] (H-S[Nle]D[Nle]RCSA[Abu]VECKQKCLKAIGSIFGKCMNKKCKCYPR-NH2; disulfide 6-27, 12-32, 16-34)
IC50 [1]: 0.2 nM
IC50 [2]: ≤ 1 nM
IC50 [2, 3]: 0.93 nM

CCCC[C@H](NC(=O)[C@H](CC(=O)O)NC(=O)[C@H](CCCC)NC(=O)[C@@H](N)CO)C(=O)N[C@@H](CCCNC(=N)N)C(=O)N[C@H]1CSSC[C@@H]2NC(=O)[C@H](CCCCCN)NC(=O)CNC(=O)[C@H](Cc3ccccc3)NC(=O)[C@H]([C@@H](C)CC)NC(=O)[C@H](CO)NC(=O)CNC(=O)[C@H]([C@@H](C)CC)NC(=O)[C@H](C)NC(=O)[C@H](CCCCN)NC(=O)[C@H](CC(C)C)NC(=O)[C@@H]3CSSC[C@@H](C(=O)N[C@@H](Cc4ccc(O)cc4)C(=O)N4CCC[C@H]4C(=O)N[C@@H](CCCNC(=N)N)C(N)=O)NC(=O)[C@H](CCCCN)NC(=O)[C@H](CSSC[C@H](NC(=O)[C@H](CCC(=O)O)NC(=O)[C@H](C(C)C)NC(=O)[C@H](CO)NC(=O)[C@H](C)NC(=O)[C@H](CO)NC1=O)C(=O)N[C@@H](CCCCN)C(=O)N[C@@H](CCC(N)=O)C(=O)N[C@@H](CCCCN)C(=O)N3)NC(=O)[C@H](CCCCN)NC(=O)[C@H](CCCCN)NC(=O)[C@H](CC(N)=O)NC(=O)[C@H](CCSC)NC2=O [Compound 69] (H-S[Nle]D[Nle]RCSASVECKQKCLKAIGSIFG[hLys]CMNKKCKCYPR-NH2; disulfide 6-27, 12-32, 16-34)
IC50 [1]: 0.58 nM
IC50 [2, 3]: 2.7 nM

CCCC[C@H](NC(=O)[C@H](CC(=O)O)NC(=O)[C@H](CCCC)NC(=O)[C@@H](N)CO)C(=O)N[C@@H](CCCNC(=N)N)C(=O)N[C@H]1CSSC[C@@H]2NC(=O)[C@H](CCCCN)NC(=O)CNC(=O)[C@H](Cc3ccccc3)NC(=O)[C@H]([C@@H](C)CC)NC(=O)[C@H](CO)NC(=O)CNC(=O)[C@H]([C@@H](C)CC)NC(=O)[C@H](C)NC(=O)[C@H](CCCCN)NC(=O)[C@H](CC(C)C)NC(=O)[C@@H]3CSSC[C@@H](C(=O)N[C@@H](Cc4ccc(O)cc4)C(=O)N4CCC[C@H]4C(=O)N[C@@H](CCCNC(=N)N)C(N)=O)NC(=O)[C@H](CCCCN)NC(=O)[C@H](CSSC[C@H](NC(=O)[C@H](CCC(=O)O)NC(=O)[C@H](C(C)C)NC(=O)[C@H](CO)NC(=O)[C@H](C)NC(=O)[C@H](CO)NC1=O)C(=O)N[C@@H](C(C)C)C(=O)N[C@@H](CCC(N)=O)C(=O)N[C@@H](CCCCN)C(=O)N3)NC(=O)[C@H](CCCCN)NC(=O)[C@H](CCCCN)NC(=O)[C@H](CC(N)=O)NC(=O)[C@H](CCSC)NC2=O [Compound 72] (H-S[Nle]D[Nle]RCSASVECVQKCLKAIGSIFGKCMNKKCKCYPR-NH2; disulfide 6-27, 12-32, 16-34)
IC50 [1]: 0.19 nM
IC50 [2]: ≤ 1 nM
IC50 [2, 3]: 0.47 nM

CCCC[C@H](NC(=O)[C@H](CC(=O)O)NC(=O)[C@H](CCCC)NC(=O)[C@@H](N)CO)C(=O)N[C@@H](CCCNC(=N)N)C(=O)N[C@H]1CSSC[C@@H]2NC(=O)[C@H](CCCCN)NC(=O)CNC(=O)[C@H](Cc3ccccc3)NC(=O)[C@H]([C@@H](C)CC)NC(=O)[C@H](CO)NC(=O)CNC(=O)[C@H]([C@@H](C)CC)NC(=O)[C@H](C)NC(=O)[C@H](CCCCN)NC(=O)[C@H](CC(C)C)NC(=O)[C@@H]3CSSC[C@@H](C(=O)N[C@@H](Cc4ccc(O)cc4)C(=O)N4CCC[C@H]4C(=O)N[C@@H](CCCNC(=N)N)C(N)=O)NC(=O)[C@H](CCCCN)NC(=O)[C@H](CSSC[C@H](NC(=O)[C@H](CCC(=O)O)NC(=O)[C@H](C(C)C)NC(=O)[C@H](CO)NC(=O)[C@H](C)NC(=O)[C@H](CO)NC1=O)C(=O)N[C@@H](CCCCN)C(=O)N[C@@H](CCCC(=O)O)C(=O)N[C@@H](CCCCN)C(=O)N3)NC(=O)[C@H](CCCCN)NC(=O)[C@H](CCCCN)NC(=O)[C@H](CC(N)=O)NC(=O)[C@H](CCSC)NC2=O [Compound 73] (H-S[Nle]D[Nle]RCSASVECK[Aad]KCLKAIGSIFGKCMNKKCKCYPR-NH2; disulfide 6-27, 12-32, 16-34)
IC50 [1]: 0.11 nM
IC50 [2]: ≤ 1 nM
IC50 [2, 3]: 0.52 nM

CCCC[C@H](NC(=O)[C@H](CC(=O)O)NC(=O)[C@H](CCCC)NC(=O)[C@@H](N)CO)C(=O)N[C@@H](CCCNC(=N)N)C(=O)N[C@H]1CSSC[C@@H]2NC(=O)[C@H](CCCCN)NC(=O)CNC(=O)[C@H](Cc3ccccc3)NC(=O)[C@H]([C@@H](C)CC)NC(=O)[C@H](CO)NC(=O)CNC(=O)[C@H]([C@@H](C)CC)NC(=O)[C@H](C)NC(=O)[C@H](CCCCN)NC(=O)[C@H](CC(C)C)NC(=O)[C@@H]3CSSC[C@@H](C(=O)N[C@@H](Cc4ccc(O)cc4)C(=O)N[C@@H](CCC(N)=O)C(N)=O)NC(=O)[C@H](CCCCN)NC(=O)[C@H](CSSC[C@H](NC(=O)[C@H](CCC(=O)O)NC(=O)[C@H](C(C)C)NC(=O)[C@H](CO)NC(=O)[C@H](C)NC(=O)[C@H](CO)NC1=O)C(=O)N[C@@H](CCCCN)C(=O)N[C@@H](CCC(N)=O)C(=O)N[C@@H](CCCCN)C(=O)N3)NC(=O)[C@H](CCCCN)NC(=O)[C@H](CCCCN)NC(=O)[C@H](CC(N)=O)NC(=O)[C@H](CCSC)NC2=O [Compound 74] (H-S[Nle]D[Nle]RCSASVECKQKCLKAIGSIFGKCMNKKCKCYQ-NH2; disulfide 6-27, 12-32, 16-34)
IC50 [1]: 0.36 nM
IC50 [2, 3]: 1.6 nM

CCCC[C@H](NC(=O)[C@H](CC(=O)O)NC(=O)[C@H](CCCC)NC(=O)[C@@H](N)CO)C(=O)N[C@@H](CCCNC(=N)N)C(=O)N[C@H]1CSSC[C@@H]2NC(=O)[C@H](CCCCN)NC(=O)CNC(=O)[C@H](Cc3ccccc3)NC(=O)[C@H]([C@@H](C)CC)NC(=O)[C@H](CO)NC(=O)CNC(=O)[C@H]([C@@H](C)CC)NC(=O)[C@H](C)NC(=O)[C@H](C(C)C)NC(=O)[C@H](CC(C)C)NC(=O)[C@@H]3CSSC[C@@H](C(=O)N[C@@H](Cc4ccc(O)cc4)C(=O)N4CCC[C@H]4C(=O)N[C@@H](CCCNC(=N)N)C(N)=O)NC(=O)[C@H](CCCCN)NC(=O)[C@H](CSSC[C@H](NC(=O)[C@H](CCC(=O)O)NC(=O)[C@H](C(C)C)NC(=O)[C@H](CO)NC(=O)[C@H](C)NC(=O)[C@H](CO)NC1=O)C(=O)N[C@@H](CCCCN)C(=O)N[C@@H](CCC(N)=O)C(=O)N[C@@H](CCCCN)C(=O)N3)NC(=O)[C@H](CCCCN)NC(=O)[C@H](CCCCN)NC(=O)[C@H](CC(N)=O)NC(=O)[C@H](CCSC)NC2=O [Compound 78] (H-S[Nle]D[Nle]RCSASVECKQKCLVAIGSIFGKCMNKKCKCYPR-NH2; disulfide 6-27, 12-32, 16-34)
IC50 [1]: 0.12 nM
IC50 [2]: ≤ 1 nM
IC50 [2, 3]: 0.39 nM

CCCC[C@@H]1NC(=O)[C@@H]2CSSC[C@H](NC(=O)[C@H](CCCNC(=N)N)NC(=O)[C@H](CCCC)NC(=O)[C@H](CC(=O)O)NC(=O)[C@H](CCCC)NC(=O)[C@@H](N)CO)C(=O)N[C@@H](CO)C(=O)N[C@@H](C)C(=O)N[C@@H](CO)C(=O)N[C@@H](C(C)C)C(=O)N[C@@H](CCC(=O)O)C(=O)N[C@H]3CSSC[C@H](NC(=O)[C@H](CCCCN)NC(=O)[C@H](CCCCN)NC(=O)[C@H](CC(N)=O)NC1=O)C(=O)N[C@@H](CCCCN)C(=O)N[C@H](C(=O)N[C@@H](Cc1ccc(O)cc1)C(=O)N1CCC[C@H]1C(=O)N[C@@H](CCCNC(=N)N)C(=O)O)CSSC[C@H](NC(=O)[C@H](CCCCN)NC(=O)[C@H](CCC(N)=O)NC(=O)[C@H](CCCCN)NC3=O)C(=O)N[C@@H](CC(C)C)C(=O)N[C@@H](CCCCN)C(=O)N[C@@H](C)C(=O)N[C@@H]([C@@H](C)CC)C(=O)NCC(=O)N[C@@H](CO)C(=O)N[C@@H]([C@@H](C)CC)C(=O)N[C@@H](Cc1ccccc1)C(=O)NCC(=O)N[C@@H](CCCCN)C(=O)N2 [Compound 82] (H-S[Nle]D[Nle]RCSASVECKQKCLKAIGSIFGKC[Nle]NKKCKCYPR-OH; disulfide 6-27, 12-32, 16-34)
IC50 [1]: 0.49 nM
IC50 [2]: ≤ 1 nM
IC50 [2, 3]: 0.52 nM

CCCC[C@@H]1NC(=O)[C@@H]2CSSC[C@H](NC(=O)[C@H](CCCNC(=N)N)NC(=O)[C@H](CCCC)NC(=O)[C@H](CC(=O)O)NC(=O)[C@H](CCCC)NC(=O)[C@@H](N)CO)C(=O)N[C@@H](CO)C(=O)N[C@@H](C)C(=O)N[C@@H](CO)C(=O)N[C@@H](C(C)C)C(=O)N[C@@H](CCC(=O)O)C(=O)N[C@H]3CSSC[C@H](NC(=O)[C@H](CCCCN)NC(=O)[C@H](CCCCN)NC(=O)[C@H](CC(N)=O)NC1=O)C(=O)N[C@@H](CCCCN)C(=O)N[C@H](C(=O)N[C@@H](Cc1ccc(O)cc1)C(=O)N1CCC[C@H]1C(=O)N[C@@H](CCCNC(=N)N)C(N)=O)CSSC[C@H](NC(=O)[C@H](CCCCN)NC(=O)[C@H](CCC(=O)O)NC(=O)[C@H](CCCCN)NC3=O)C(=O)N[C@@H](CC(C)C)C(=O)N[C@@H](CCC(N)=O)C(=O)N[C@@H](C)C(=O)N[C@@H]([C@@H](C)CC)C(=O)NCC(=O)N[C@@H](CO)C(=O)N[C@@H]([C@@H](C)CC)C(=O)N[C@@H](Cc1ccccc1)C(=O)NCC(=O)N[C@@H](CCCCN)C(=O)N2 [Compound 84] (H-S[Nle]D[Nle]RCSASVECKEKCLQAIGSIFGKC[Nle]NKKCKCYPR-NH2; disulfide 6-27, 12-32, 16-34)
IC50 [1]: 0.084 nM
IC50 [2]: ≤ 1 nM
IC50 [2, 3]: 0.69 nM
